Experimental findings from patent publication US20170001990A1 (Genentech, Inc., priority 2014, published 2017) are described below.

“And” between values parts separate entries of the source, which are not always exact repeats. Equal entries are not always repeated.

The assay has as its target Human recombinant carboxy-terminal his-tagged LDHA (amino acids 2-332) (Homo sapiens, UniProt P00338). Put plainly: LDHA enzyme inhibition assay (NADH fluorescence). Conditions: LDHA IC50 (μM), 1 nM LDHA, NADH and pyruvate, stereochemistry of tested sample given.
On to `COc1cccc(Oc2cccc(C3(c4ccsc4)CC(=O)C(Sc4ccccc4Cl)C(=O)N3)n2)c1` (centres unmarked) [Example 64, 3-(2-chlorophenyl)sulfanyl-6-[6-(3-methoxyphenoxy)-2-pyridyl]-6-(3-thienyl) piperidine-2,4-dione], for which the IC50 (commonly the midpoint of a concentration-inhibition curve) came to 0.126 µM. Next, `O=C1CC(c2ccsc2)(c2cccc(OCCC3CCC3)n2)NC(=O)C1Sc1ccccc1Cl` (single isomer, unassigned) [Example 168, 3-(2-chlorophenyl)sulfanyl-6-[6-(2-cyclobutylethoxy)-2-pyridyl]-6-(3-thienyl) piperidine-2,4-dione]: 0.19 µM; `CN1C(=O)C(Sc2ccccc2Cl)C(=O)CC1(c1ccsc1)c1cccc(Nc2ccc(F)cc2)n1` (centres unmarked) [Example 11, 3-(2-chlorophenyl)sulfanyl-6-[6-(4-fluoroanilino)-2-pyridyl]-1-methyl-6-(3-thienyl)piperidine-2,4-dione]: 0.002 µM; `CC(C)c1cc(F)ccc1Oc1cccc([C@@]2(c3ccsc3)CC(=O)C(Sc3ccccc3Cl)C(=O)N2)n1` (stereo partly drawn) [Example 319, (6S)-3-(2-chlorophenyl) sulfanyl-6-[6-(4-fluoro-2-isopropyl-phenoxy)-2-pyridyl]-6-(3-thienyl) piperidine-2,4-dione]: 0.197 µM. The value for `O=C1CC(c2ccsc2)(c2cccc(OC3CCCCC3)n2)NC(=O)C1Sc1ccccc1Cl` (single isomer, unassigned) [Example 181, 3-(2-chlorophenyl)sulfanyl-6-[6-(cyclohexoxy)-2-pyridyl]-6-(3-thienyl) piperidine-2,4-dione] was 0.006 µM.

Take `O=C1CC(c2ccsc2)(c2cccc(OCC3CCCO3)n2)NC(=O)C1Sc1ccccc1Cl` (single isomer, unassigned) [Example 238, 3-(2-chlorophenyl)sulfanyl-6-[6-(tetrahydrofuran-2-ylmethoxy)-2-pyridyl]-6-(3-thienyl)piperidine-2,4-dione]: the IC50 is 0.018 µM. Next, `O=C1CC(c2ccsc2)(c2cccc(Oc3ccccn3)n2)NC(=O)C1Sc1ccccc1Cl` (centres unmarked) [Example 46, 3-(2-chlorophenyl) sulfanyl-6-[6-(2-pyridyloxy)-2-pyridyl]-6-(3-thienyl)piperidine-2,4-dione]: 0.005 µM; `O=C1CC(c2ccsc2)(c2cccc(Cc3cc(F)cc(F)c3)n2)NC(=O)C1Sc1ccccc1Cl` (single isomer, unassigned) [Example 146, 3-(2-chlorophenyl)sulfanly-6-[6-[(3,5-difluorophenyl)methyl]-2-pyridyl]-6-(3-thienyl)piperidine-2,4-dione]: 0.189 µM; `CC1(C)OCC(CCOc2cccc(C3(c4ccsc4)CC(=O)C(Sc4ccccc4Cl)C(=O)N3)n2)O1` (centres unmarked) [Example 191, 3-(2-chlorophenyl)sulfanyl-6-[6-[2-(2,2-dimethyl-1,3-dioxolan-4-yl)ethoxy]-2-pyridyl]-6-(3-thienyl) piperidine-2,4-dione]: 0.158 µM. For the compound `C[C@H](Nc1cccc(C2(c3ccsc3)CC(=O)C(Sc3ccccc3Cl)C(=O)N2)n1)c1ccc(F)cc1` (stereo in doubt) [Example 303, 3-((2-chlorophenyl)thio)-6-(6-((1-(4-fluorophenyl)ethyl)amino)pyridin-2-yl)-6-(thiophen-3-yl) piperidine-2,4-dione], the IC50 was 0.434 µM. Next, `O=C1CCC(COc2cccc(C3(c4ccsc4)CC(=O)C(Sc4ccccc4Cl)C(=O)N3)n2)O1` (single isomer, unassigned) [Example 193, 3-(2-chlorophenyl)sulfanyl-6-[6-[(5-oxotetrahydrofuran-2-yl)methoxy]-2-pyridyl]-6-(3-thienyl)piperidine-2,4-dione]: 0.059 µM; `COCc1ccccc1Oc1cccc(C2(c3ccsc3)CC(=O)C(Sc3ccccc3Cl)C(=O)N2)n1` (centres unmarked) [Example 94]: 0.023 µM; `CC(C)COc1cccc(C2(c3ccsc3)CC(=O)C(Sc3ccccc3Cl)C(=O)N2)n1` (centres unmarked) [Example 75, 3-(2-chlorophenyl)sulfanyl-6-(6-isobutoxy-2-pyridyl)-6-(3-thienyl)piperidine-2,4-dione]: 0.07 µM.

For the compound `O=C1CC(c2ccsc2)(c2cccc(Oc3ccc(Cl)cc3)n2)NC(=O)C1Sc1ccccc1Cl` (centres unmarked) [Example 58, 6′-(4-chlorophenoxy)-5-((2-chlorophenyl)thio)-4-hydroxy-2-(thiophen-3-yl)-2,3-dihydro-[2,2′-bipyridin]-6(1H)-one], the IC50 was 0.01 µM. Next, `COc1cc(F)cc(Cc2cccc(C3(c4ccsc4)CC(=O)C(Sc4ccccc4Cl)C(=O)N3)n2)c1` (centres unmarked) [Example 147, 3-((2-chlorophenyl)thio)-6-(6-(3-fluoro-5-methoxy-benzyl)pyridin-2-yl)-6-(thiophen-3-yl)piperidine-2,4-dione]: 0.008 µM. The value for `O=C1CC(c2ccsc2)(c2cccc(N3CC(C4CCOCC4)C3)n2)NC(=O)C1Sc1ccccc1Cl` (centres unmarked) [Example 232, 3-(2-chlorophenyl)sulfanyl-6-[6-(3-tetrahydropyran-4-ylazetidin-1-yl)-2-pyridyl]-6-(3-thienyl) piperidine-2,4-dione] was 0.009 µM. Next, `O=C1CC(c2ccc(N3CCCCC3)cc2)(c2ccsc2)NC(=O)C1Sc1cc(O)ccc1Cl` (centres unmarked) [Example 43]: 0.017 µM; `O=C1CC(c2ccsc2)(c2cccc(NCc3ccc(F)cc3)n2)NC(=O)C1Sc1ccccc1Cl` (single isomer, unassigned) [Example 292, 3-((2-chlorophenyl)thio)-6-(6-((4-fluorobenzyl)amino)pyridin-2-yl)-6-(thiophen-3-yl)piperidine-2,4-dione]: 0.037 µM.

Take `COCCCOc1cccc(C2(c3ccsc3)CC(=O)C(Sc3ccccc3Cl)C(=O)N2)n1` (single isomer, unassigned) [Example 201, 3-(2-chlorophenyl)sulfanyl-6-[6-(3-methoxypropoxy)-2-pyridyl]-6-(3-thienyl) piperidine-2,4-dione]: the IC50 worked out at 0.037 µM. The value for `O=C1CC(c2ccsc2)(c2cccc(Oc3cncc(F)c3)n2)NC(=O)C1Sc1ccccc1Cl` (single isomer, unassigned) [Example 202, 3-(2-chlorophenyl)sulfanyl-6-[6-[(5-fluoro-3-pyridyl)oxy]-2-pyridyl]-6-(3-thienyl) piperidine-2,4-dione] was 0.018 µM; that for `O=C1CC(c2ccsc2)(c2cccc(Oc3ccc(F)c(Br)c3)n2)NC(=O)C1Sc1ccccc1Cl` (single isomer, unassigned) [Example 122, 6-[6-(3-bromo-4-fluoro-phenoxy)-2-pyridyl]-3-(2-chlorophenyl)sulfanyl-6-(3-thienyl)piperidine-2,4-dione] was 0.022 µM.

As for `O=C1CC(c2ccsc2)(c2cccc(OCC3CCCC3)n2)NC(=O)C1Sc1ccccc1Cl` (single isomer, unassigned) [Example 252, 3-(2-chlorophenyl)sulfanyl-6-[6-(cyclopentyl-methoxy)-2-pyridyl]-6-(3-thienyl)pipereidine-2,4-dione], the IC50 amounted to 0.079 µM. For `O=C1CC(c2ccsc2)(c2cccc(OCC3COC3)n2)NC(=O)C1Sc1ccccc1Cl` (single isomer, unassigned) [Example 199, 3-(2-chlorophenyl)sulfanyl-6-[6-(oxetan-3-ylmethoxy)-2-pyridyl]-6-(3-thienyl) piperidine-2,4-dione], the IC50 was 0.012 µM. Regarding `O=C1CC(c2ccsc2)(c2cccc(Oc3cccc(C(F)(F)F)c3)n2)NC(=O)C1Sc1ccccc1Cl` (centres unmarked) [Example 140, 3-(2-chlorophenyl)sulfanyl-6-(3-thienyl)-6-[6-[3-(trifluoromethyl)phenoxy]-2-pyridyl]piperidine-2,4-dione], the half-maximal inhibitory concentration (IC50) was found to be 0.012 µM. On to `O=C1CC(c2ccsc2)(c2cccc(Cc3cc(F)cc(F)c3)n2)NC(=O)C1Sc1ccccc1Cl` (centres unmarked) [Example 151, 3-(2-chlorophenyl)sulfanyl-6-[6-[(3,5-difluorophenyl)methyl]-2-pyridyl]-6-(3-thienyl)piperidine-2,4-dione], for which the IC50 was 0.015 µM. As for `O=C1CC(c2ccsc2)(c2ccccc2O)NC(=O)C1Sc1ccccc1Cl` (centres unmarked) [Example 36, 3-(2-chlorophenyl)sulfanyl-6-(2-hydroxyphenyl)-6-(3-thienyl)piperidine-2,4-dione], the half-inhibitory concentration (IC50) was 0.021 µM and 0.008 µM and 0.025 µM. With `O=C1CC(c2ccsc2)(c2cccc(CCc3ccc(F)cc3)n2)NC(=O)C1Sc1ccccc1Cl` (single isomer, unassigned) [Example 293, 3-((2-chlorophenyl)thio)-6-(6-(4-fluorophenethyl)pyridin-2-yl)-6-(thiophen-3-yl)piperidine-2,4-dione], the IC50 worked out at 0.091 µM. With `O=C1C[C@](c2ccc(N3CCOCC3)cc2)(c2cccc(Oc3ccc(F)c(F)c3)n2)NC(=O)C1Sc1ccccc1Cl` (stereo partly drawn) [Example 318, (6S)-3-(2-chlorophenyl) sulfanyl-6-[6-(3,4-difluoro-phenoxy)-2-pyridyl]-6-(4-morpholinophenyl) piperidine-2,4-dione], the half-inhibitory concentration (IC50) came to 0.01 µM. For `O=C1CC(c2ccsc2)(c2cccc(Oc3cccc4c3NCCC4)n2)NC(=O)C1Sc1ccccc1Cl` (centres unmarked) [Example 111, 3-((2-chlorophenyl)thio)-6-(6-((1,2,3,4-tetrahydro-quinolin-8-yl)oxy)pyridin-2-yl)-6-(thiophen-3-yl)piperidine-2,4-dione], the 50% inhibitory concentration (IC50) amounted to 0.012 µM.

`O=C1CC(c2ccsc2)(c2cccc(Oc3cccc(F)c3)n2)NC(=O)C1Sc1ccccc1Cl` (single isomer, unassigned) [Example 79, 3-(2-chlorophenyl)sulfanyl-6-[6-(3-fluorophenoxy)-2-pyridyl]-6-(3-thienyl) piperidine-2,4-dione]: the half-maximal inhibitory concentration (IC50) was found to be 0.199 µM. The value for `O=C1CC(c2ccsc2)(c2cccc(Sc3ccc(F)cc3)n2)NC(=O)C1Sc1ccccc1Cl` (single isomer, unassigned) [Example 160, 3-(2-chlorophenyl)sulfanyl-6-[6-(4-fluorophenyl)sulfanyl-2-pyridyl]-6-(3-thienyl)piperidine-2,4-dione] was 0.008 µM; that for `O=C1CC(c2cccc(Oc3ccc(F)cc3)n2)(c2ccccc2O)NC(=O)C1Sc1ccccc1Cl` (centres unmarked) [Example 338, 5-(2-chlorophenyl)sulfanyl-2-[6-(4-fluorophenoxy)-2-pyridyl]-4-hydroxy-2-(2-hydroxyphenyl)-1,3-dihydropyridin-6-one] was 0.009 µM.
